Measurements reported in ChEMBL document CHEMBL3286226, “Discovery of thienopyrimidine-based FLT3 inhibitors from the structural modification of known IKKβ inhibitors” (Bioorg Med Chem Lett, 2014).

Assays:
[1] = tested on: K562; test: Growth inhibition of human K562 cells by XTT assay; format: functional; set-up: scale not given: the % may be the effect or the level left
[2] = tested on: Receptor-type tyrosine-protein kinase FLT3 (Homo sapiens), P36888 [D835Y]; test: Inhibition of human FLT3 kinase D835Y mutant assessed as residual activity at 10 uM relative to control
[3] = tested on: RAW264.7; test: cells; conditions: Mus musculus
Description: Antiinflammatory activity against mouse RAW264.7 cells assessed as reduction of LPS-induced TNF-alpha production

[4] = target: T1, Inhibitor of nuclear factor kappa-B kinase subunit beta (Homo sapiens, UniProt O14920)
T1 sequence (O14920 whole entry): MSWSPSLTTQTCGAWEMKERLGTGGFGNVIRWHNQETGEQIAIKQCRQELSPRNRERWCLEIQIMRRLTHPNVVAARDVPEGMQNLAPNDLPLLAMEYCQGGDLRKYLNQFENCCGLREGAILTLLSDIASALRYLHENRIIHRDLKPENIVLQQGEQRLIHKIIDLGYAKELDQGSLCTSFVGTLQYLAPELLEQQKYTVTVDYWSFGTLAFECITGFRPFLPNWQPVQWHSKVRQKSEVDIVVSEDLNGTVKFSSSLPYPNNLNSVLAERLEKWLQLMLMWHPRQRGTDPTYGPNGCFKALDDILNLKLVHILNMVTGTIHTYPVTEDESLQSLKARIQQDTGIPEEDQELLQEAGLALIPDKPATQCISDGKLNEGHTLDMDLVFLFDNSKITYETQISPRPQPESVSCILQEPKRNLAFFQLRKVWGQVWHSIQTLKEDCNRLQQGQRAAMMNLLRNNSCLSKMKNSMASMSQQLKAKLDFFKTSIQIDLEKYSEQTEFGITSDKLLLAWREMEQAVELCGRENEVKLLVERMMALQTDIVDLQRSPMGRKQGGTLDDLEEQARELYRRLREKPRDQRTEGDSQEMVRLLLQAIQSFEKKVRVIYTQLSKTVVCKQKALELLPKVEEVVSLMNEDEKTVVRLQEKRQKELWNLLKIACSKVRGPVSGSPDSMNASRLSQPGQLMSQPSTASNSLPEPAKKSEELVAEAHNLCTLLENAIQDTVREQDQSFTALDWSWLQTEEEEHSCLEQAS
Description: Inhibition of IKKbeta kinase (unknown origin) by Lance ULight system

[5] = Growth inhibition of human THP1 cells by XTT assay; format: functional; conditions: THP-1
[6] = tested on: HL-60; test: Growth inhibition of human HL60 cells by XTT assay; format: functional
[7] = tested on: RAW264.7; test: cells; conditions: Mus musculus; remark: listed apart in the source
Description: Antiinflammatory activity against mouse RAW264.7 cells assessed as reduction of LPS-induced NO production

[8] = tested on: MV4-11; test: Growth inhibition of human MV4-11 cells by XTT assay; format: functional
[9] = target: T1, Inhibitor of nuclear factor kappa-B kinase subunit beta; remark: listed apart in the source
Description: Inhibition of IKKbeta kinase (unknown origin) by Radioisotope system

[10] = target: T2, Receptor-type tyrosine-protein kinase FLT3 (Homo sapiens, UniProt P36888)
T2 sequence (P36888 whole entry): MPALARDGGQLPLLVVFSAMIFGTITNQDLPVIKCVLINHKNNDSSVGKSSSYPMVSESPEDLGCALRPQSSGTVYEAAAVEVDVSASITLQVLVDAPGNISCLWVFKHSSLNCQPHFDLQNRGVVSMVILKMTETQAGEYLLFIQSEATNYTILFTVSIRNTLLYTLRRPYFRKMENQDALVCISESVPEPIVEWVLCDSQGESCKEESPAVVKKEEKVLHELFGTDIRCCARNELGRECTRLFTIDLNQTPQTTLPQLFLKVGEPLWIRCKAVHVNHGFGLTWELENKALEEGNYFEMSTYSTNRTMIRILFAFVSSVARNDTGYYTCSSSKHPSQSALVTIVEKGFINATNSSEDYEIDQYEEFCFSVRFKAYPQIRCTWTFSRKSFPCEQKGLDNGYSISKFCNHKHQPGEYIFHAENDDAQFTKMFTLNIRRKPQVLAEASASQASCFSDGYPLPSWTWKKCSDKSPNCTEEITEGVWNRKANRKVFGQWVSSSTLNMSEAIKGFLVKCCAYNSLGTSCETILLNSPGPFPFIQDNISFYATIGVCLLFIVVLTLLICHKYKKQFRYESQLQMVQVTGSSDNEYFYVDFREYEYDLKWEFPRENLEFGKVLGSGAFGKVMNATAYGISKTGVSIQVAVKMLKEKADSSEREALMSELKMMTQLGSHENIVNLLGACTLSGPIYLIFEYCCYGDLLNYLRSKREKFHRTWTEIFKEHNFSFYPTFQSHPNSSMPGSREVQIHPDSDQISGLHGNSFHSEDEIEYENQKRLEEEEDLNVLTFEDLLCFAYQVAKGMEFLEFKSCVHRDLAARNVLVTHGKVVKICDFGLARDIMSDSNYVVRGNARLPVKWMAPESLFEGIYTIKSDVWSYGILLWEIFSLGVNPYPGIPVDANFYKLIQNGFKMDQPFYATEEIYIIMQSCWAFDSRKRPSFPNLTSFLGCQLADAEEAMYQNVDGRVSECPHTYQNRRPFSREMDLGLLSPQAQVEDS
Description: Inhibition of FLT3 kinase (unknown origin)

[11] = target: Receptor-type tyrosine-protein kinase FLT3 (Homo sapiens) (UniProt P36888); test: Inhibition of human FLT3 kinase assessed as residual activity at 10 uM relative to control

Activity [2]: 2% | IC50 [3]: 4220 nM | IC50 [4]: > 50000 nM | GI50 [6]: 264 nM | IC50 [7]: 1920 nM | GI50 [8]: 3 nM | IC50 [9]: Not Active | IC50 [10]: 65 nM | Activity [11]: 5%
SMILES: CC1=CC(=O)N(Nc2nc(-c3cccs3)nc3scc(C)c23)C1=O
Activity [1]: 0.257% | GI50 [5]: 111 nM
